# Source: PubChem BioAssay (NCI)
#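 96-well plates; 48 h exposure; 5 concentrations. Endpoints by linear interpolation between flanking doses. Not reached: highest tested concentration assigned. GI50: concentration for 50% inhibition of growth. TGI denotes the concentration required for complete inhibition of growth.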
# What was measured:
# Test in all cases: DTP human tumour cell line panel, 48 h
# [1] = tested on: 786-0 renal
# [2] = tested on: A498 renal
# [3] = tested on: A549 NSCLC
# [4] = tested on: ACHN renal
# [5] = tested on: BT-549 breast
# [6] = tested on: CCRF-CEM leukemia
# [7] = tested on: COLO 205 colon
# [8] = tested on: DU-145 prostate
# [9] = tested on: EKVX NSCLC
# [10] = tested on: HCC-2998 colon
# [11] = tested on: HCT-116 colon
# [12] = tested on: HCT-15 colon
# [13] = tested on: HL-60(TB) leukemia
# [14] = tested on: HOP-62 NSCLC
# [15] = tested on: HOP-92 NSCLC
# [16] = tested on: HS 578T breast
# [17] = tested on: HT29 colon
# [18] = tested on: IGROV1 ovarian
# [19] = tested on: K-562 leukemia
# [20] = tested on: KM12 colon
# [21] = tested on: LOX IMVI melanoma
# [22] = tested on: M14 melanoma
# [23] = tested on: MALME-3M melanoma
# [24] = tested on: MCF7 breast
# [25] = tested on: MDA-MB-231 breast
# [26] = tested on: MDA-MB-435
# [27] = tested on: MOLT-4 leukemia
# [28] = tested on: NCI-H226 lung
# [29] = tested on: NCI-H23 lung
# [30] = tested on: NCI-H460 lung
# [31] = tested on: NCI-H522 lung
# [32] = tested on: NCI/ADR-RES ovarian
# [33] = tested on: OVCAR-3 ovarian
# [34] = tested on: OVCAR-4 ovarian
# [35] = tested on: OVCAR-5 ovarian
# [36] = tested on: OVCAR-8 ovarian
# [37] = tested on: PC-3 prostate
# [38] = tested on: RPMI-8226 leukemia
# [39] = tested on: RXF 393 renal
# [40] = tested on: SF-268 CNS
# [41] = tested on: SF-295 CNS
# [42] = tested on: SF-539 CNS
# [43] = tested on: SK-MEL-2 melanoma
# [44] = tested on: SK-MEL-28 melanoma
# [45] = tested on: SK-MEL-5 melanoma
# [46] = tested on: SK-OV-3 ovarian
# [47] = tested on: SN12C renal
# [48] = tested on: SNB-19 CNS
# [49] = tested on: SNB-75 CNS
# [50] = tested on: SR leukemia
# [51] = tested on: SW-620 colon
# [52] = tested on: T-47D breast
# [53] = tested on: TK-10 renal
# [54] = tested on: U251 CNS
# [55] = tested on: UACC-257 melanoma
# [56] = tested on: UACC-62 melanoma
# [57] = tested on: UO-31 renal
# [58] = tested on: CAKI-1 renal
structure (smiles),measurement,setting,value
COCC1(CO)C(=O)C2CCN1CC2 (stereo not drawn),GI50,[1],17.4 µM
same,TGI,[1],35.5 µM
same,GI50,[2],23 µM
same,TGI,[2],63.9 µM
same,GI50,[3],> 79 µM
same,TGI,[3],> 100 µM
same,GI50,[4],14.5 µM
same,TGI,[4],28.7 µM
same,GI50,[5],15.6 µM
same,TGI,[5],29.5 µM
same,GI50,[6],10.8 µM
same,TGI,[6],37.1 µM
same,GI50,[7],16.8 µM
same,TGI,[7],35.8 µM
same,GI50,[8],17.7 µM
same,TGI,[8],32.3 µM
same,GI50,[9],18.1 µM
same,TGI,[9],43.4 µM
same,GI50,[10],> 100 µM
same,TGI,[10],> 100 µM
same,GI50,[11],14.3 µM
same,TGI,[11],27.9 µM
same,GI50,[12],15.8 µM
same,TGI,[12],32.7 µM
same,GI50,[13],18.9 µM
same,TGI,[13],45.2 µM
same,GI50,[14],> 100 µM
same,TGI,[14],> 100 µM
same,GI50,[15],14.8 µM
same,TGI,[15],30 µM
same,GI50,[16],> 67.5 µM
same,TGI,[16],> 100 µM
same,GI50,[17],28.1 µM
same,TGI,[17],> 63.9 µM
same,GI50,[18],18.4 µM
same,TGI,[18],40.6 µM
same,GI50,[19],19.9 µM
same,TGI,[19],58.5 µM
same,GI50,[20],> 100 µM
same,TGI,[20],> 100 µM
same,GI50,[21],18.2 µM
same,TGI,[21],37.2 µM
same,GI50,[22],15.4 µM
same,TGI,[22],31.6 µM
same,GI50,[23],12.6 µM
same,TGI,[23],28.3 µM
same,GI50,[24],19.1 µM
same,TGI,[24],52.6 µM
same,GI50,[25],17.2 µM
same,TGI,[25],32 µM
same,GI50,[26],17.1 µM
same,TGI,[26],32.8 µM
same,GI50,[27],19.4 µM
same,TGI,[27],51.4 µM
same,GI50,[28],> 47.5 µM
same,TGI,[28],> 71.9 µM
same,GI50,[29],19.7 µM
same,TGI,[29],46 µM
same,GI50,[30],> 59 µM
same,TGI,[30],> 100 µM
same,GI50,[31],4.28 µM
same,TGI,[31],11.7 µM
same,GI50,[32],25.6 µM
same,TGI,[32],> 78.6 µM
same,GI50,[33],14.2 µM
same,TGI,[33],29.4 µM
same,GI50,[34],16.9 µM
same,TGI,[34],40.4 µM
same,GI50,[35],26.2 µM
same,TGI,[35],> 55.7 µM
same,GI50,[36],34.6 µM
same,TGI,[36],> 80.3 µM
same,GI50,[37],36 µM
same,TGI,[37],> 58.4 µM
same,GI50,[38],23.8 µM
same,TGI,[38],64.3 µM
same,GI50,[39],15.7 µM
same,TGI,[39],30.2 µM
same,GI50,[40],> 90.1 µM
same,TGI,[40],> 100 µM
same,GI50,[41],> 100 µM
same,TGI,[41],> 100 µM
same,GI50,[42],> 40.7 µM
same,TGI,[42],> 55.7 µM
same,GI50,[43],20.6 µM
same,TGI,[43],46.5 µM
same,GI50,[44],14.5 µM
same,TGI,[44],28.6 µM
same,GI50,[45],43.7 µM
same,TGI,[45],> 77.7 µM
same,GI50,[46],> 51 µM
same,TGI,[46],> 80.9 µM
same,GI50,[47],16.1 µM
same,TGI,[47],31.1 µM
same,GI50,[48],> 69 µM
same,TGI,[48],> 100 µM
same,GI50,[49],21.9 µM
same,TGI,[49],> 94.2 µM
same,GI50,[50],18.4 µM
same,TGI,[50],58.4 µM
same,GI50,[51],18.1 µM
same,TGI,[51],37.9 µM
same,GI50,[52],9.55 µM
same,TGI,[52],34.3 µM
same,GI50,[53],16.8 µM
same,TGI,[53],31.1 µM
same,GI50,[54],> 71 µM
same,TGI,[54],> 100 µM
same,GI50,[55],17.7 µM
same,TGI,[55],34 µM
same,GI50,[56],23 µM
same,TGI,[56],> 56.1 µM
same,GI50,[57],15.1 µM
same,TGI,[57],30 µM
CCOC(=O)c1c(NC(=O)c2cccc(C(F)(F)F)c2)sc2c(CN(C)C)c(O)ccc12,GI50,[1],2.33 µM
same,TGI,[1],6.1 µM
same,GI50,[2],12.4 µM
same,TGI,[2],34.5 µM
same,GI50,[3],3.3 µM
same,TGI,[3],12.7 µM
same,GI50,[4],4.49 µM
same,TGI,[4],15.8 µM
same,GI50,[5],12.2 µM
same,TGI,[5],26.9 µM
same,GI50,[58],2.16 µM
same,TGI,[58],5.07 µM
same,GI50,[6],3.41 µM
same,TGI,[6],11.7 µM
same,GI50,[7],2.1 µM
same,TGI,[7],4.66 µM
same,GI50,[8],5.82 µM
same,TGI,[8],17.9 µM
same,GI50,[9],15.2 µM
same,TGI,[9],36.1 µM
same,GI50,[10],1.77 µM
same,TGI,[10],3.77 µM
same,GI50,[11],3.14 µM
same,TGI,[11],10.3 µM
same,GI50,[12],2.13 µM
same,TGI,[12],5.77 µM
same,GI50,[13],1.89 µM
same,TGI,[13],4.26 µM
same,GI50,[14],13.8 µM
same,TGI,[14],27.7 µM
same,GI50,[15],2.76 µM
same,TGI,[15],15.2 µM
same,GI50,[16],6.78 µM
same,TGI,[16],26.4 µM
same,GI50,[17],2.21 µM
same,TGI,[17],5.05 µM
same,GI50,[18],12.2 µM
same,TGI,[18],28.8 µM
same,GI50,[19],1.83 µM
same,TGI,[19],4.76 µM
same,GI50,[20],4.92 µM
same,TGI,[20],17.9 µM
same,GI50,[21],2.7 µM
same,TGI,[21],7.52 µM
same,GI50,[22],1.89 µM
same,TGI,[22],3.53 µM
same,GI50,[23],1.71 µM
same,TGI,[23],3.22 µM
same,GI50,[24],2.81 µM
same,TGI,[24],12.1 µM
same,GI50,[25],4.23 µM
same,TGI,[25],15.2 µM
same,GI50,[26],3.15 µM
same,TGI,[26],12.9 µM
same,GI50,[27],3.77 µM
same,TGI,[27],38.8 µM
same,GI50,[28],16 µM
same,TGI,[28],36.2 µM
same,GI50,[29],13.1 µM
same,TGI,[29],32.1 µM
same,GI50,[30],2.19 µM
same,TGI,[30],4.76 µM
same,GI50,[31],5.03 µM
same,TGI,[31],28 µM
same,GI50,[32],8.82 µM
same,TGI,[32],21 µM
same,GI50,[33],10.1 µM
same,TGI,[33],21.7 µM
same,GI50,[34],9.85 µM
same,TGI,[34],21.5 µM
same,GI50,[35],4.58 µM
same,TGI,[35],16.7 µM
same,GI50,[36],6.12 µM
same,TGI,[36],18.8 µM
same,GI50,[37],5.45 µM
same,TGI,[37],18.1 µM
same,GI50,[39],1.81 µM
same,TGI,[39],3.76 µM
same,GI50,[40],4.69 µM
same,TGI,[40],24.1 µM
same,GI50,[41],2.83 µM
same,TGI,[41],9.2 µM
same,GI50,[42],3.41 µM
same,TGI,[42],12.4 µM
same,GI50,[43],2.57 µM
same,TGI,[43],6.92 µM
same,GI50,[44],1.76 µM
same,TGI,[44],3.21 µM
same,GI50,[45],2.36 µM
same,TGI,[45],5.72 µM
same,GI50,[46],19.1 µM
same,TGI,[46],41.8 µM
same,GI50,[47],7.68 µM
same,TGI,[47],20.4 µM
same,GI50,[48],10.6 µM
same,TGI,[48],22.8 µM
same,GI50,[49],11.1 µM
same,TGI,[49],26.8 µM
same,GI50,[50],3.16 µM
same,TGI,[50],6.92 µM
same,GI50,[51],2.31 µM
same,TGI,[51],5.53 µM
same,GI50,[52],3.74 µM
same,TGI,[52],21.4 µM
same,GI50,[53],4.25 µM
same,TGI,[53],15.8 µM
same,GI50,[54],2.21 µM
same,TGI,[54],5.45 µM
same,GI50,[55],1.76 µM
same,TGI,[55],3.31 µM
same,GI50,[56],1.71 µM
same,TGI,[56],3.17 µM
same,GI50,[57],3.34 µM
same,TGI,[57],14.4 µM
